Test results published in patent US7959948B2, “Pharmaceutical composition of quetiapine fumarate” (Synthon BV, priority 2007, dated 2011).
Where a name gives a salt, the structure may show the parent alone.

Assays:
[1] = physchem
Text: The composition preferably comprises an acid, preferably fumaric acid.

[2] = white crystalline powder; cited from earlier work

**Q.** Which results are given for OCCOCCN1CCN(C2=Nc3ccccc3Sc3ccccc32)CC1 [Quetiapine fumarate, 2-[2-(4-dibenzo[b,f] [1,4]thiazepin-11-yl-1-piperazinyl)ethoxy]ethanol]?
**A.** solubility ([1]; pH 1, simulated gastric fluid): 35.8 mg/mL; solubility ([1]; pH 6.2, aqueous buffer): 4.6 mg/mL; solubility in water [2]: moderately soluble in water
